Values joined by “and” are separate entries in the source; they are usually repeats but may differ in a detail not shown here. Identical values can stand only once. Results filed as inconclusive are left out.
Test system: nude mice, LX-1 lung xenograft intrarenal, tumor weight T/C
Assay: NCI In Vivo Anticancer Drug Screen. Data for tumor model Human Lung LX-1 Xenograft (intrarenal inoculation) in NU/NU Swiss (nude) mice
Conditions: endpoint: mean tumor weight change, higher = larger tumour
Method in brief: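 In vivo, transplantable tumor; compound vs vehicle arms; tumor size measured; value = T/C.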

[1] = dose: 300.0 mg/kg/injection, schedule: Q04DX003 (sc), vehicle: Klucel (hydroxypropylcellulose) (HPC)
[2] = dose: 600.0 mg/kg/injection, schedule: Q04DX003 (sc), vehicle: Klucel (hydroxypropylcellulose) (HPC)
[3] = dose: 1200.0 mg/kg/injection, schedule: Q04DX003 (sc), vehicle: Klucel (hydroxypropylcellulose) (HPC)
[4] = dose: 2400.0 mg/kg/injection, schedule: Q04DX003 (sc), vehicle: Klucel (hydroxypropylcellulose) (HPC)
[5] = dose: 150.0 mg/kg/injection, schedule: Q04DX003 (sc), vehicle: saline with Tween-80
[6] = dose: 300.0 mg/kg/injection, schedule: Q04DX003 (sc), vehicle: saline with Tween-80
[7] = dose: 600.0 mg/kg/injection, schedule: Q04DX003 (sc), vehicle: saline with Tween-80
[8] = dose: 1200.0 mg/kg/injection, schedule: Q04DX003 (sc), vehicle: saline with Tween-80
[9] = dose: 2400.0 mg/kg/injection, schedule: Q04DX003 (sc), vehicle: saline with Tween-80
[10] = dose: 75.0 mg/kg/injection, schedule: Q04DX003 (sc), vehicle: Klucel (hydroxypropylcellulose) (HPC)
[11] = dose: 50.0 mg/kg/injection, schedule: Q01DX010 (sc), vehicle: saline
[12] = dose: 100.0 mg/kg/injection, schedule: Q01DX010 (sc), vehicle: saline
[13] = dose: 150.0 mg/kg/injection, schedule: Q04DX003 (sc), vehicle: Klucel (hydroxypropylcellulose) (HPC)

With `CN(C)C(=O)SC1=C(c2c(Cl)cccc2Cl)C(=O)c2ccccc21` the T/C [1] was 84 % of control, the T/C [2] was 106 % of control and the T/C [3] was 65 % of control. The T/C [4] was 92 % of control.
In the case of `CN1CCN(c2ccc([N+](=O)[O-])c3no[n+]([O-])c23)CC1`, the T/C [5] is reported as 73 % of control.
`CN(C)CCOc1ccc2c(c1)C/C(=C/c1ncc([N+](=O)[O-])n1C)C2=O` was tested, and the T/C [6] was 93 % of control, the T/C [7] was 82 % of control and the T/C [8] was 44 % of control. For the same compound, the T/C [9] was 61 % of control.
For `[N-]=[N+]=CC(=O)CCC(=O)C=[N+]=[N-]`, the T/C (dose: 1.5 mg/kg/injection, schedule: Q01DX010 (sc), vehicle: DMSO) was 69 % of control and the T/C (dose: 3.0 mg/kg/injection, schedule: Q01DX010 (sc), vehicle: DMSO) was 27 % of control.
With `COc1cc2cc[n+](C)c(Cc3ccccc3)c2cc1OC` the T/C (dose: 37.5 mg/kg/injection, schedule: Q04DX003 (sc), vehicle: Klucel (hydroxypropylcellulose) (HPC)) was 88 % of control and the T/C [10] was 115 % of control.
`COc1cc2cc(c1Cl)N(C)C(=O)CC(OC(=O)C(C)C)C1(C)OC1C(C)C1CC(O)(NC(=O)O1)C(OC)/C=C/C=C(C)C2` (stereo unspecified) was tested, and the T/C (dose: 100.0 micrograms/kg/injection, schedule: Q01DX010 (sc), vehicle: saline + alcohol) was 19 % of control and 39 % of control and the T/C (dose: 200.0 micrograms/kg/injection, schedule: Q01DX010 (sc), vehicle: saline + alcohol) was 44 % of control.
With `CCN1/C(=C/C(C)=C/c2sc3ccc4ccccc4c3[n+]2CC)Sc2ccc3ccccc3c21` the T/C (dose: 0.75 mg/kg/injection, schedule: Q04DX003 (sc), vehicle: Klucel (hydroxypropylcellulose) (HPC)) was 67 % of control, the T/C (dose: 1.5 mg/kg/injection, schedule: Q04DX003 (sc), vehicle: Klucel (hydroxypropylcellulose) (HPC)) was 112 % of control and the T/C (dose: 3.0 mg/kg/injection, schedule: Q04DX003 (sc), vehicle: Klucel (hydroxypropylcellulose) (HPC)) was 76 % of control. For the same compound, the T/C (dose: 6.0 mg/kg/injection, schedule: Q04DX003 (sc), vehicle: Klucel (hydroxypropylcellulose) (HPC)) was 96 % of control, the T/C (dose: 12.0 mg/kg/injection, schedule: Q04DX003 (sc), vehicle: Klucel (hydroxypropylcellulose) (HPC)) was 112 % of control and the T/C (dose: 48.0 mg/kg/injection, schedule: Q04DX003 (sc), vehicle: Klucel (hydroxypropylcellulose) (HPC)) was 81 % of control and 92 % of control.
With `COC(C(=O)C(O)C(C)O)C1Cc2cc3cc(OC4CC(OC(C)=O)C(OC5CC(O)C(OC)C(C)O5)C(C)O4)cc(O)c3c(O)c2C(=O)C1OC1CC(OC2CC(OC3CC(C)(O)C(OC(=O)C(C)C)C(C)O3)C(O)C(C)O2)C(O)C(C)O1` (stereo unspecified) the T/C (dose: 1.0 mg/kg/injection, schedule: Q04DX003 (sc), vehicle: saline with Tween-80) was 77 % of control, the T/C (dose: 2.0 mg/kg/injection, schedule: Q04DX003 (sc), vehicle: saline with Tween-80) was 58 % of control and the T/C (dose: 4.0 mg/kg/injection, schedule: Q01DX010 (sc), vehicle: saline with Tween-80) was 12 % of control and 30 % of control. The T/C (dose: 4.0 mg/kg/injection, schedule: Q04DX003 (sc), vehicle: saline with Tween-80) was 50 % of control.
`Nc1nc(F)nc2c1ncn2C1OC(COP(=O)(O)O)C(O)C1O` (stereo unspecified) was tested, and the T/C [11] was 55 % of control, the T/C (dose: 50.0 mg/kg/injection, schedule: Q01DX010 (sc), vehicle: suspension in saline) was 53 % of control and 70 % of control and the T/C [12] was 20 % of control and 30 % of control. For the same compound, the T/C (dose: 100.0 mg/kg/injection, schedule: Q01DX010 (sc), vehicle: suspension in saline) was 56 % of control and 59 % of control, the T/C (dose: 200.0 mg/kg/injection, schedule: Q01DX010 (sc), vehicle: suspension in saline) was 6 % of control and 18 % of control and the T/C (dose: 400.0 mg/kg/injection, schedule: Q01DX010 (sc), vehicle: saline) was -72 % of control. For the same compound, the T/C (dose: 400.0 mg/kg/injection, schedule: Q01DX010 (sc), vehicle: suspension in saline) was -62 % of control.
With `Nc1nc(=S)c2ncn(C3CC(O)C(CO)O3)c2[nH]1` (stereo unspecified) the T/C (dose: 0.31 mg/kg/injection, schedule: Q01DX010 (sc), vehicle: saline with Tween-80) was 108 % of control, the T/C (dose: 0.63 mg/kg/injection, schedule: Q01DX010 (sc), vehicle: saline with Tween-80) was 66 % of control and the T/C (dose: 1.25 mg/kg/injection, schedule: Q01DX010 (sc), vehicle: saline with Tween-80) was 85 % of control. For the same compound, the T/C (dose: 2.5 mg/kg/injection, schedule: Q01DX010 (sc), vehicle: saline with Tween-80) was 83 % of control.
In the case of `CN=C(NC#N)NCCSCc1nc[nH]c1C`, the T/C [1] is reported as 81 % of control, the T/C [2] is reported as 66 % of control and the T/C [3] is reported as 73 % of control.
For `C(CC1CO1)C1CO1` (stereo unspecified), the T/C (dose: 25.0 mg/kg/injection, schedule: Q01DX010 (sc), vehicle: saline) was 104 % of control, the T/C [11] was 64 % of control and the T/C [12] was 42 % of control.
`S=C(Nc1ccc(Cl)c(Cl)c1)N1c2ccccc2-n2cccc2C1c1cccnc1` (stereo unspecified) was tested, and the T/C [1] was 58 % of control, the T/C [2] was 104 % of control and the T/C [3] was 71 % of control. The T/C [4] was 65 % of control.
`Cc1cc(NCCCN(C)C)c2ccc3c(ccc4c(NCCCN(C)C)cc(C)nc43)c2n1` was tested, and the T/C (dose: 9.38 mg/kg/injection, schedule: Q04DX003 (sc), vehicle: saline with Tween-80) was 86 % of control and the T/C (dose: 18.75 mg/kg/injection, schedule: Q04DX003 (sc), vehicle: saline with Tween-80) was 82 % of control.
In the case of `C=Cc1cnc([N+](=O)[O-])n1C`, the T/C [10] is reported as 106 % of control, the T/C [13] is reported as 96 % of control and the T/C [1] is reported as 98 % of control. For the same compound, the T/C [2] was 92 % of control.
With `C1CCC2[N-]CC3CCCCC3[N-]CC3CCCCC3[N-]CC3CCCCC3[N-]CC2C1.[Cu]` (stereo unspecified) the T/C (dose: 6.25 mg/kg/injection, schedule: Q01DX010 (sc), vehicle: Klucel (hydroxypropylcellulose) (HPC)) was 100 % of control, the T/C (dose: 12.5 mg/kg/injection, schedule: Q01DX010 (sc), vehicle: Klucel (hydroxypropylcellulose) (HPC)) was 87 % of control and the T/C (dose: 25.0 mg/kg/injection, schedule: Q01DX010 (sc), vehicle: Klucel (hydroxypropylcellulose) (HPC)) was 51 % of control.
In the case of `O=S1(=O)C=C(c2ccccc2)C(c2ccccc2)=C1`, the T/C (dose: 75.0 mg/kg/injection, schedule: Q04DX003 (sc), vehicle: saline with Tween-80) is reported as 59 % of control, the T/C [5] is reported as 81 % of control and the T/C [6] is reported as 59 % of control. For the same compound, the T/C [7] was 71 % of control.
With `C=C(OP(=O)(OC)OC)Sc1ccccc1C` the T/C (dose: 100.0 micrograms/kg/injection, schedule: Q04DX003 (sc), vehicle: Klucel (hydroxypropylcellulose) (HPC)) was 68 % of control, the T/C (dose: 200.0 micrograms/kg/injection, schedule: Q04DX003 (sc), vehicle: Klucel (hydroxypropylcellulose) (HPC)) was 68 % of control and the T/C (dose: 400.0 micrograms/kg/injection, schedule: Q04DX003 (sc), vehicle: Klucel (hydroxypropylcellulose) (HPC)) was 67 % of control. For the same compound, the T/C (dose: 800.0 micrograms/kg/injection, schedule: Q04DX003 (sc), vehicle: Klucel (hydroxypropylcellulose) (HPC)) was 79 % of control.
`Cc1cc2cc3cc(C)c(N)cc3nc2cc1N` was tested, and the T/C (dose: 100.0 mg/kg/injection, schedule: Q04DX003 (sc), vehicle: saline with Tween-80) was 77 % of control, the T/C (dose: 200.0 mg/kg/injection, schedule: Q04DX003 (sc), vehicle: saline with Tween-80) was 51 % of control and the T/C (dose: 400.0 mg/kg/injection, schedule: Q04DX003 (sc), vehicle: saline with Tween-80) was 63 % of control. For the same compound, the T/C (dose: 800.0 mg/kg/injection, schedule: Q04DX003 (sc), vehicle: saline with Tween-80) was 95 % of control.
In the case of `CNc1cccnc1/C=N/NC(N)=S`, the T/C [6] is reported as 94 % of control, the T/C [7] is reported as 57 % of control and the T/C [8] is reported as 67 % of control. The T/C [9] was 75 % of control.
In the case of `N=[N+]=CC(=O)OCC(N)C(=O)O` (stereo unspecified), the T/C (dose: 12.5 mg/kg/injection, schedule: Q01DX010 (sc), vehicle: saline) is reported as 101 % of control.
For `CC(=O)c1c(O)c(C)c(O)c2c1OC1=CC(=O)C(C(C)=O)C(=O)C12C` (stereo unspecified), the T/C (dose: 25.0 mg/kg/injection, schedule: Q01DX010 (sc), vehicle: sodium bicarbonate) was 207 % of control, the T/C (dose: 50.0 mg/kg/injection, schedule: Q01DX010 (sc), vehicle: sodium bicarbonate) was 102 % of control and the T/C (dose: 200.0 mg/kg/injection, schedule: Q01DX010 (sc), vehicle: sodium bicarbonate) was 82 % of control and 104 % of control.
With `CCOC(=O)CNC(=O)Sc1ccc(C(C)(C)C)cc1` the T/C [13] was 89 % of control, the T/C [1] was 99 % of control and the T/C [2] was 76 % of control. The T/C [3] was 95 % of control.
In the case of `CC(=O)Nc1ccc(O)c(O)c1`, the T/C [6] is reported as 154 % of control, the T/C [7] is reported as 103 % of control and the T/C [9] is reported as 51 % of control.
With `C/C=C(\C)c1cc(=O)c2c(C)cc3c(c2o1)C(=O)c1c(O)c(C2CC(C)(N(C)C)C(O)C(C)O2)cc(C2CC(N(C)C)C(O)C(C)O2)c1C3=O` (stereo unspecified) the T/C (dose: 2.0 mg/kg/injection, schedule: Q04DX003 (sc), vehicle: saline) was 76 % of control, the T/C (dose: 4.0 mg/kg/injection, schedule: Q04DX003 (sc), vehicle: saline) was 89 % of control and the T/C (dose: 8.0 mg/kg/injection, schedule: Q04DX003 (sc), vehicle: saline) was 80 % of control. For the same compound, the T/C (dose: 16.0 mg/kg/injection, schedule: Q04DX003 (sc), vehicle: saline) was 35 % of control.
